# Measurements as given in patent US20250109120A1, “INDOLINE DERIVATIVES FOR TREATMENT AND/OR PREVENTION OF TUMOR OR CELL PROLIFERATIVE AND FIBROSIS DISEASES” (NATIONAL TAIWAN UNIVERSITY, priority 2023, published 2025).
# pIC50: −log10 of the molar value.
# Assays:
# [1] = test system: A549 cells; test: TGF-β1-induced EMT protein expression, western blot; type: cell-based, human; settings: test compounds 2 μM, senexin A 5 μM, pirfenidone 1 mM; TGF-β1 10 ng/mL
# Protocol: FIGS. 4A-4B show the inhibition of epithelial-to-mesenchymal transition protein expressions by CDK8 inhibitors in human alveolar epithelial cells. […] Cell lysates were subjected to a Western blot analysis using the indicated antibodies. Results are shown as the mean t SEM from three independent experiments. *p<0.05, and ***p<0.001 compared to the control group; #p<0.05, ##p<0.01, and ###p<0.001 compared to the TGF-β1-treated group. […] Cell viabilities were determined by an MTT assay. Results are shown as the mean t SEM of three independent experiments.
# (§1) Cells (106) were incubated for 10 min at 4° C. in lysis buffer (20 mM HEPES at pH 7.4, 2 mM EGTA, 50 mM β-glycerophosphate, 0.1% Triton X-100, 10% glycerol, 1 mM DTT, 1 μg/mL of leupeptin, 5 μg/mL of aprotinin, 1 mM phenylmethylsulfonyl fluoride, and 1 mM sodium orthovanadate), scraped off, incubated on ice for an additional 10 min, and centrifuged at 17,000 g for 30 min at 4° C. Protein samples (20 μg) were then electrophoresed on SDS-polyacrylamide gel electrophoresis (PAGE) gels and transferred to a nitrocellulose membrane, which was then blocked by incubation for 30 min at room temperature with 5% bovine serum albumin (BSA) in Tris-buffered saline with 0.1% Tween-20 (TBST). Immunoblotting was performed by overnight incubation at 4° C. with primary antibodies in TBST, followed by incubation for 1 h at room temperature with horseradish peroxidase (HRP)-conjugated secondary antibodies. Bound antibodies were measured using enhanced chemiluminescence (ECL) reagent (GE Healthcare, UK) and exposed to photographic film.
# [2] = test system: A549 cells; test: Nuclear p-Smad3 T179 and RNA polymerase II pS2/S5 after TGF-β1, fractionation and western blot; type: cell-based, human; settings: compound k 5 μM, senexin A 5 μM, pirfenidone 1 mM; TGF-β1 10 ng/ml 3 h
# Protocol: FIGS. 8A-8B show the inhibitory effects of cellular distributions of TGF-β1-induced p-Smad3 T179, RNA polymerase II pS2/S5, and Smad3 after treatment with compound k. Human alveolar epithelial A549 cells were incubated with compound k (5 μM), senexin A (5 μM), or pirfenidone (1 mM) for 1 h, followed by stimulation with TGF-β1 (10 ng/ml) for 3 h. Protein expressions in the cytoplasmic and nuclear fractions were subjected to a Western blot analysis using the indicated antibodies. α-Tubulin and histone H3 served as loading controls for the cytoplasmic and nuclear fractions, respectively. Results are shown as the mean±SEM of three independent experiments. **p<0.01 and ***p<0.001 compared to the control group; #p<0.05 and ##p<0.01 compared to the TGF-β1-treated group.
# as §1
# A Nuclear/Cytosol Fractionation Kit (Biovision, USA) was used to separate the cytosolic and nuclear fractions. […]
# [3] = test system: DU145 cells; test: LiCl-induced β-catenin signaling, western blot; type: cell-based, human; settings: LiCl 20 mM; senexin A 10 μM
# Protocol: Inhibitory phosphorylation of GSK3β was evaluated through western blotting. […] Whole-cell lysates were subjected to western blotting with the indicated antibodies. FIGS. 11J-11K show the comparison of basal activities of the Akt/GSK3β axis between PC-3 and DU145 cells. […] The results are shown as the mean±SEM from at least three independent experiments (*p<0.05, **p<0.01, ***p<0.001 vs. control group; #p<0.05, ##p<0.01, and ###p<0.001 vs. relevant control).
# The cells were incubated in lysis buffer for 10 min at 4° C., scraped off, incubated on ice for an additional 10 min and then centrifuged at 17,000 g for 30 min at 4° C. Protein samples were electrophoresed on SDS-PAGE gels, transferred to PVDF membranes and blocked with 5% fat-free milk in PBS for 30 min at room temperature. Immunoblotting was performed overnight with primary antibodies in PBS at 4° C., followed by incubation with HRP-conjugated secondary antibodies for 1 h at room temperature. Bound antibodies will be measured using an ECL reagent and exposed to a photographic film. In the immunoprecipitation assay, cell lysates were immunoprecipitated with 1 μg of antibody and A/G agarose beads overnight at 4° C. After washing the precipitated beads three times with 1 mL ice-cold cell lysis buffer, bound immune complexes were separated by 10% SDS-PAGE and analyzed with immunoblotting.
# [4] = target: CDK8 (Homo sapiens (Human), UniProt P49336); settings: commercial CDK8 inhibitor; cited from earlier work
# CDK8, sequence (P49336 whole entry, looked up, species assumed): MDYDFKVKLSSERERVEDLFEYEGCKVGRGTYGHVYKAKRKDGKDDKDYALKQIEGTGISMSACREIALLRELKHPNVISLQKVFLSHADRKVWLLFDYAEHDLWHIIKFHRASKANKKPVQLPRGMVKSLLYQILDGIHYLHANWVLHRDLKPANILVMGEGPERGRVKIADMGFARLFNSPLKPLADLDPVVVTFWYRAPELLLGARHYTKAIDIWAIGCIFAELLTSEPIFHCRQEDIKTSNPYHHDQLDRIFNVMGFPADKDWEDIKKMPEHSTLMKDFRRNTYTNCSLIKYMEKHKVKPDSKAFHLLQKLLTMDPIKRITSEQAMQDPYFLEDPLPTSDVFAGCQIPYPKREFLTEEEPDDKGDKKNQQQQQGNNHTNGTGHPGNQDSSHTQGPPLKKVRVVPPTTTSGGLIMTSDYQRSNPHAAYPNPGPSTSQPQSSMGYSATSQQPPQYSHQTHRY
# CDK8, sequence (P24863 whole entry partner, looked up, species assumed): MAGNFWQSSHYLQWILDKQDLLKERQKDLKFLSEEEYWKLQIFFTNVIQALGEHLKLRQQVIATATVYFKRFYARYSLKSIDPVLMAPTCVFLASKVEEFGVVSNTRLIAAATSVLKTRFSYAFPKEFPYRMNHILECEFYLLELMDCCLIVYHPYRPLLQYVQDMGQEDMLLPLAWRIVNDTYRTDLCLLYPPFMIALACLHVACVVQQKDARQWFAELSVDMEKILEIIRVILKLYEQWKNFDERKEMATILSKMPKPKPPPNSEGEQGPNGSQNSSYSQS
structure (smiles),measurement,setting,value
"N#Cc1ccc2ncnc(NCCc3ccccc3)c2c1 [Senexin A, reference compound]",TGF-β1-triggered EMT protein expressions,[1],slight inhibition
same,phosphorylation of p-Smad3 T179 and RNA Pol II pSer2/5,[2],less-potent inhibition
same,levels of active form of β-catenin and Snail,[3],reduced the levels
same,pIC50,[4],6.55
